Bridge positions count the residues as written; N and C are the ends. Square brackets hold non-standard residues; d marks the D form. Peptide text beside a SMILES is read from it. R8 = C=CCCCCCC[C@@](C)(N)C(=O)O; S5 = C=CCCC[C@](C)(N)C(=O)O
Columns and labels:
[1] = molecular target: IR (Homo sapiens, UniProt P06213); settings: read-out: affinity to the IR (kD); cited from earlier work
[2] = tested on: phosphorylation of Akt1 at Ser473; test: Phospho-Akt1 (Ser473) sandwich ELISA in HepG2 cells, antagonism and agonism screening; format: cell-based, human
Experimental: We note that although S371 has a high affinity to IR, it can barely induce downstream effects such as lipogenesis in rat adipocytes, which may reconcile with the result of no increase in downstream Akt phosphorylation. The effect of the peptides on insulin signaling was determined using a sandwich ELISA assay kit (Cell Signaling) designed to measure phosphorylation of Akt Ser473, a downstream target in the insulin signaling pathway. For each compound, cells were treated both in the presence and absence of insulin to reveal either antagonism or agonism, respectively, of insulin signaling.
Preparation: insulin stock solution at 50 μM (0.3 mg/ml or 30 mg/100 ml). To make stock: dissolved 10 mg in 1 ml 0.01 N HCl, heat at 37° C. to dissolve, then added to 32 ml, PBS, sterile filtered and stored at −20 C. Working stock would stay in good quality for 1 month at 4° C. […]
For the phospho-Akt1 ELISA assay, clarified lysate was first quantified using the standard BCA method, and all samples were adjusted to have the same total protein concentration. […]
The following day, wells were drained and washed four times with 1× Wash Buffer. […] Chemiluminescence was read under RLU mode in the […] SpectraMax Plate Reader at […] within 1-10 minutes of addition of substrate.

[3] = tested on: rat adipocytes; settings: cited from earlier work
[4] = tested on: phosphor-Akt S473; test: Dose-response ELISA of phospho-Akt S473 in CHO-IR cell lysates; format: cell-based; settings: 50 nM insulin
Experimental: FIG. 6 depicts the dose-response of antagonist SIRB-B5. CHO-IR cells were treated with 50 nM insulin and increasing concentrations of SIRB-B5. ELISA assays of phosphor-IR Y1150/1151 and phosphor-Akt S473 were performed with cell lysates.
For further verification of biological activity, the SIRB peptide library was screened again using IR auto-phosphorylation as an indicator. […] A possible explanation for the differential plateau values is that phosphorylation of Akt1 is controlled by many other pathways as well and thus difficult to abolish completely.

[5] = molecular target: T1, L1-CR-L2 (Homo sapiens, UniProt P06213); test: Affinity pull-down of IR construct by biotinylated peptide on streptavidin beads; settings: 1% BSA in binding buffer, Western blot of His5 tag
T1 construct: made in house; host or cells: HEK293 (stably transfected; protein used from expression medium)
Description: (§1) FIGS. 8A-8C depict the affinity pull-down of IR by SIRB-B5. 1% BSA added to binding buffer. FIG. 8A depicts the pull-down assay: Biotinylated SIRB-B5 could be immobilized on streptavidincoated beads and pull down IR from expression medium. Precipitated protein could be visualized by Western blot of His5 tag. FIG. 8B depicts L1-CR-L2 pulled down by SIRB-B5. FIG. 8C depicts mIR-Fn1-Ex10 pulled down by SIRB-B5 and competition by insulin.

[6] = tested on: mIR-Fn1-Ex10; test: as above; settings: 1% BSA in binding buffer, competition by insulin
Description: as §1

[7] = molecular target: T2, IGF-1R (Homo sapiens, UniProt P08069); test: IGF-1R phosphorylation Western blot after immunoprecipitation, HepG2 cells with IGF1; format: cell-based; settings: in the presence of IGF1
T2 construct: host or cells: HepG2
T2 sequence (P08069 31-736 limits assumed): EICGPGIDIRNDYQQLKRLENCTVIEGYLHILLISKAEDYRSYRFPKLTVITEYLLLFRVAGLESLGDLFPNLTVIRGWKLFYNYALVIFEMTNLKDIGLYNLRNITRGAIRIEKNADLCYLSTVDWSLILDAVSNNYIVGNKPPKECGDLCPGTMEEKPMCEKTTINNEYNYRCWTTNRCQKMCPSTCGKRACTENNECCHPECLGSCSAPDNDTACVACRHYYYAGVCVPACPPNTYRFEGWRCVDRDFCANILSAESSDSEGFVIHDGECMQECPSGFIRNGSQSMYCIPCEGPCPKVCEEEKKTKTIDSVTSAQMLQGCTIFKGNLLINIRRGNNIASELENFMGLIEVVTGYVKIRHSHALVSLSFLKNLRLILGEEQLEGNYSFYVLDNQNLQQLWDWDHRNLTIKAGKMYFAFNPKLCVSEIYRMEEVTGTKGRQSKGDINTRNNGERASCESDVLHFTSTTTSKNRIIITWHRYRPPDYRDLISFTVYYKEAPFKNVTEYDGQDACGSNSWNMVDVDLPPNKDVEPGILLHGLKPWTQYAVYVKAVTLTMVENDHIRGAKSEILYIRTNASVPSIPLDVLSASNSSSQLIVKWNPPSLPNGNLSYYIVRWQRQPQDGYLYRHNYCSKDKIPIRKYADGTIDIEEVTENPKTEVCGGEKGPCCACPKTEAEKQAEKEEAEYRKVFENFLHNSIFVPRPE
T2 sequence (P08069 741-1367 partner limits assumed): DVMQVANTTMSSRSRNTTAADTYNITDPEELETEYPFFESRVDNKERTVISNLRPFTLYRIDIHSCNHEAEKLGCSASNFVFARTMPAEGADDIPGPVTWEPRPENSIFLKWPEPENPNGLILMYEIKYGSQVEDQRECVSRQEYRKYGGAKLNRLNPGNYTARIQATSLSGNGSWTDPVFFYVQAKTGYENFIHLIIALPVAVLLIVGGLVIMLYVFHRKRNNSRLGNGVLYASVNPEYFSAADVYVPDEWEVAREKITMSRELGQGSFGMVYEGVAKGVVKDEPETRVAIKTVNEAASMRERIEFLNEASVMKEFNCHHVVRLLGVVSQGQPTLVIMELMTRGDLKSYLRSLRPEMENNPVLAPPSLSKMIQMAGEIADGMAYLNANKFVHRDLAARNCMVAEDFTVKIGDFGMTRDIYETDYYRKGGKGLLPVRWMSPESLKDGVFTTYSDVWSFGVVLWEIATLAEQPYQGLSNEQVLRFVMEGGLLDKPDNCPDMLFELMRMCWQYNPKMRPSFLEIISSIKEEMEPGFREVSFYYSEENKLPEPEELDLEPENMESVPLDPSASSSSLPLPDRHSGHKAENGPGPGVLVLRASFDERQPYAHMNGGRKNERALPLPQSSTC
Experimental: FIG. 11 depicts SIRB-B5 antagonism on IGF-1R. HepG2 cells were treated with SIRB-B5 in the presence of IGF1. IGF-1R was immunoprecipitated to be distinguished from IR on a Phospho-IR/IGF-1R Western blot.

[8] = molecular target: T3, IRβ Tyr1150/1151 (Homo sapiens, UniProt P06213); test: Immunoblotting of IR auto-phosphorylation in CHO-IR cells; format: cell-based; settings: 10 μM peptides in the presence of 50 nM insulin
T3 construct: expressed in transfected cells; host or cells: CHO-IR (CHO cells stably expressing IR, from the Morris White lab)
Experimental: To perform this type of direct assay, a CHO-IR cell line that stably expresses IR (provided by Morris White lab) was treated with SIRB peptides to detect auto-phosphorylation of IRβ Tyr1150/1151 (Cell signaling) by western blot.
CHO-IR cells were seeded in 24-well plates and grown in Ham's F-12, 10% FBS medium to >80% confluent (in ˜48 hours). The cells are starved in Ham's F-12 medium without FBS for two hours prior to experiment.
For agonistic studies, cells were incubated in fresh Ham's F-12 without FBS (negative control and baseline for normalization) or the same medium with 50 nM insulin (positive control and 100% activity for normalization). Experimental wells were incubated in the same medium containing various concentrations of peptide (typically 1 uM, 10 uM, and 100 uM). All cells were incubated at 37° C. for 15 min or 30 min.
For antagonistic studies, the experiment could be done with or without pre-treatment with peptides. In the case without, cells were incubated in fresh Ham's F-12 without FBS (negative control and baseline for normalization) or the same medium with 50 nM insulin (positive control and 100% activity for normalization).
Experimental wells were incubated in the same medium containing various concentrations of peptide (typically 1 uM, 10 uM, and 100 uM) AND 50 nM insulin. All cells were incubated at 37 C. for 15 min. […]

Compound | Kd [1] | reduction of the insulin-induced Akt-S473 phosphorylation signal ([2]; 10 μM peptide in the presence of 50 nM insulin) | agonistic effect on Akt phosphorylation, peptide alone ([2]; absence of insulin) | induction of lipogenesis [3] | IC50 ([4]; CHO-IR cells, read-out: IC50, inhibition of insulin-induced phosphorylation of Akt) | Akt phosphorylation, % of control ([4]; maximal dose of 100 μM peptide) | pull-down of L1-CR-L2 [5] | pull-down of mIR-Fn1-Ex10 [6] | antagonism on IGF-1R [7] | effect on insulin-induced auto-phosphorylation of IR (Phospho-IR western blot) [8]
S371: previously reported insulin-mimetic site 1 peptide of 16 residues from phage display; lead for stapling (GSLDESFYDWFERQLG) | 0.04 µM | 20% | no trace of any increase in phosphorylation | barely induce |  |  |  |  |  | 
CC(C)C[C@H](NC(=O)[C@H](CCC(N)=O)NC(=O)[C@H](CCCNC(=N)N)NC(=O)[C@]1(C)CCCC=CCCCCCC[C@@](C)(NC(=O)[C@H](CC(=O)O)NC(=O)[C@H](CC(C)C)NC(=O)[C@H](CO)NC(=O)CN)C(=O)N[C@@H](CO)C(=O)N[C@@H](Cc2ccccc2)C(=O)N[C@@H](Cc2ccc(O)cc2)C(=O)N[C@@H](CC(=O)O)C(=O)N[C@@H](Cc2c[nH]c3ccccc23)C(=O)N[C@@H](Cc2ccccc2)C(=O)N1)C(=O)NCC(N)=O [SIRB-B5] (H-GSLD[R8]SFYDWF[S5]RQLG-NH2; staple 5-12; C-terminus assumed) |  |  |  |  | 1.8 µM | 16% | pulled down | pulled down | antagonism | significant reduction

From US20180057565A1, “STABILIZED POLYPEPTIDE INSULIN RECEPTOR MODULATORS” (President and Fellows of Harvard College, priority 2012, published 2018)
